Assays:
[1] = logP by HPLC on reversed phase columns (EEC directive 79/831 Annex V.A8); assay type: physicochemical; settings: for chromatographic logP: reversed phase HPLC columns
Description: Measurement of logP values was performed according EEC directive 79/831 Annex V.A8 by HPLC (High Performance Liquid Chromatography) on reversed phase columns with the following methods:
^[a] measurement of LC-MS was done at pH 2.7 with 0.1% formic acid in water and with acetonitrile (contains 0.1% formic acid) as eluent with a linear gradient from 10% acetonitrile to 95% acetonitrile. […]

Phytophthora infestans = assay type: in vivo; settings: tomato plants, preventive spray, 500 ppm of active ingredient, evaluated 7 days after inoculation; 0% = untreated control, 100% = no disease
Plasmopara viticola = assay: Plasmopara test (grapevines)/preventive; assay type: in vivo; settings: preventive spray, 100 ppm of active ingredient, evaluated 6 days after inoculation, 0% = untreated control, 100% = no disease
Description: Plasmopara Test (Grapevines)/Preventive • Solvent: 24.5 parts by weight of acetone • 24.5 parts by weight of dimethylacetamide • Emulsifier: 1 part by weight of alkylaryl polyglycol ether
To produce a suitable preparation of active compound, 1 part by weight of active compound is mixed with the stated amounts of solvent and emulsifier, and the concentrate is diluted with water to the desired concentration. To test for preventive activity, young plants are sprayed with the preparation of active compound at the stated rate of application. After the spray coating has dried on, the plants are inoculated with an aqueous spore suspension of Plasmopara viticola and then remain for 1 day in an incubation cabinet at approximately 20° C. and a relative atmospheric humidity of 100%. The plant is subsequently placed for 4 days in a greenhouse at approximately 21° C. and a relative atmospheric humidity of approximately 90%. The plants are then misted and placed for 1 day in an incubation cabinet. The test is evaluated 6 days after the inoculation. 0% means an efficacy which corresponds to that of the untreated control, while an efficacy of 100% means that no disease is observed.

[2] = method [a]: LC-MS at pH 2.7, 0.1% formic acid in water / acetonitrile, gradient 10% to 95% acetonitrile
[3] = pH 2.7, value in preparation example text, method not given
[4] = pH 2.7, method [a]: LC-MS at pH 2.7, 0.1% formic acid in water / acetonitrile, gradient 10% to 95% acetonitrile

In the case of CC(NC(=C(C#N)C(=O)C1CC1)c1ccccc1Br)C1CC1 (stereo not shown) [Example 20], the LogP [1, 2] is reported as 3.90^[a].

In the case of CC(C)C(C)NC(=C(C#N)C(=O)C1CC1)c1ccccc1Br (stereo not shown) [Example 8], the LogP [1, 2] is reported as 4.21^[a].

With CC(NC(=C(C#N)C(=O)Cc1ccccc1)c1ccccc1Br)C1CC1 (stereo not shown) [Example 25] the LogP [1, 2] was 4.20^[a].

With COCC(=O)C(C#N)=C(NC(C)C(C)C)c1ccccc1Br (stereo not shown) [Example 19] the LogP [1, 2] was 3.27^[a], the Efficacy in % (Phytophthora infestans) was 95% and the Efficacy in % (Plasmopara viticola) was 74%.

For CC(C)C(C)NC(=C(C#N)C(=O)C1CCCCO1)c1ccccc1Br (mixture of isomers) [Example 26], the LogP [1, 2] was 3.80^[a].

For CC(C)C(C)NC(=C(C#N)C(=O)C1CC1)c1ccccc1Cl (stereo not shown) [Example 31], the LogP [1, 2] was 4.18^[a].

With C[C@H](NC(=C(C#N)C(=O)C1CCCCO1)c1ccccc1Br)C1CC1 (stereo partly shown) [Example 32] the LogP [1, 2] was 3.50^[a].

For COCC(=O)C(C#N)=C(NC(C)C1CC1)c1ccccc1Br (stereo not shown) [Example 5], the LogP [1, 2] was 3.00^[a] and the Efficacy in % (Phytophthora infestans) was 93%.

With CNCC(=O)C(C#N)=C(NC(C)C(C)C)c1ccccc1Cl (stereo not shown) [Example 21] the LogP [1, 2] was 1.89^[a].

In the case of CC(NC(=C(C#N)C(=O)CCl)c1ccccc1Br)C1CC1 (stereo not shown) [Example 7], the LogP [1, 2] is reported as 3.50^[a].

With CCC(=O)C(C#N)=C(NC(C)C1CC1)c1ccccc1Br (stereo not shown) [Example 28] the LogP [1, 2] was 3.60^[a].

CC(C)C(C)NC(=CC#N)c1ccccc1Cl (stereo not shown) [3-(2-chlorophenyl)-3-[(3-methylbutan-2-yl)amino]acrylonitrile] gave a chromatographic logP [1, 3] of 3.27.

For CC(NC(=C(C#N)C(=O)CC1CC1)c1ccccc1Br)C1CC1 (stereo not shown) [Example 24], the LogP [1, 2] was 4.06^[a] and the Efficacy in % (Phytophthora infestans) was 85%.

With CC(C)C(C)NC(=C(C#N)C(=O)C1CCC1)c1ccccc1Br (stereo not shown) [Example 22] the LogP [1, 2] was 4.64^[a].

For CC(C)CC(=O)C(C#N)=C(N[C@@H](C)C(C)C)c1ccccc1Cl [Example 33], the LogP [1, 2] was 4.73^[a].

In the case of CCCCC(=O)C(C#N)=C(NC(C)C1CC1)c1ccccc1Br (stereo not shown) [Example 15], the LogP [1, 2] is reported as 4.40^[a].

In the case of CCCC(=NC#N)C(C#N)=C(N[C@@H](C)C(C)C)c1ccccc1Cl [Example 36], the LogP [1, 2] is reported as 3.85^[a].

With CC(NC(=C(C#N)C(=O)c1ccco1)c1ccccc1Br)C1CC1 (stereo not shown) [Example 10] the LogP [1, 2] was 3.50^[a].

For CCCCC(=O)C(C#N)=C(NC(C)C(C)C)c1ccccc1Br (stereo not shown) [Example 12], the LogP [1, 2] was 4.85^[a].

With COCC(=O)C(C#N)=C(NC(C)C(C)C)c1ccccc1Cl (stereo not shown) [Example 23] the LogP [1, 2] was 3.21^[a].

With CC(C)C(C)NC(=C(C#N)C(=O)CCl)c1ccccc1Cl (stereo not shown) [Example 18] the LogP [1, 2] was 3.78^[a].

CCCC(=NOC)C(C#N)=C(NC(C)C(C)C)c1ccccc1Cl (stereo not shown) [Example 35, 2-{(2-chlorophenyl)[(3-methylbutan-2-yl)amino]methylene}-3-(methoxyimino)hexanenitrile] gave a chromatographic logP [1, 4] of 5.34 and a chromatographic logP [1, 3] of 5.34.

With CC(NC(=C(C#N)C(=O)C1CCOC1)c1ccccc1Br)C1CC1 (mixture of isomers) [Example 30] the LogP [1, 2] was 3.25^[a].

With CC(C)C(C)NC(=C(C#N)C(=O)CC1CC1)c1ccccc1Cl (stereo not shown) [Example 2] the LogP [1, 2] was 4.27^[a].

For CCCC(=O)C(C#N)=C(N[C@@H](C)C1CC1)c1ccccc1Br [Example 34], the LogP [1, 2] was 4.10^[a] and the Efficacy in % (Phytophthora infestans) was 93%.

For COCCC(=O)C(C#N)=C(NC(C)C(C)C)c1ccccc1Cl (stereo not shown) [Example 27], the LogP [1, 2] was 3.55^[a].

In the case of CCCC(=O)C(C#N)=C(NC(C)C(C)C)c1ccccc1Cl (stereo not shown) [Example 13, 2-{(2-chlorophenyl)[(3-methylbutan-2-yl)amino]methylene}-3-oxohexanenitrile], the chromatographic logP [1, 4] is reported as 4.44 and the chromatographic logP [1, 3] is reported as 4.44.

With CCC(=O)C(C#N)=C(NC(C)C(C)C)c1ccccc1Br (stereo not shown) [Example 9] the LogP [1, 2] was 4.04^[a].

For CC(NC(=C(C#N)C(=O)C1CCCC1)c1ccccc1Br)C1CC1 (stereo not shown) [Example 29], the LogP [1, 2] was 4.60^[a].

With CCCCC(=O)C(C#N)=C(NC(C)C(C)C)c1ccccc1Cl (stereo not shown) [Example 14] the LogP [1, 2] was 4.81^[a].

In the case of CC(C)C(C)NC(=C(C#N)C(=O)c1ccco1)c1ccccc1Cl (stereo not shown) [Example 6], the LogP [1, 2] is reported as 3.87^[a].

With CC(NC(=C(C#N)C(=O)C1CCC1)c1ccccc1Br)C1CC1 (stereo not shown) [Example 11] the LogP [1, 2] was 4.20^[a].

With CC(C)C(C)NC(=C(C#N)C(=O)CC1CC1)c1ccccc1Br (stereo not shown) [Example 16] the LogP [1, 2] was 4.34^[a] and the Efficacy in % (Phytophthora infestans) was 95%.

For CCCC(=O)C(C#N)=C(NC(C)C(C)C)c1ccccc1Br (stereo not shown) [Example 17], the LogP [1, 2] was 4.40^[a], the Efficacy in % (Phytophthora infestans) was 100% and the Efficacy in % (Plasmopara viticola) was 93%.

In the case of CC(C)C(C)NC(=C(C#N)C(=O)C1CCCC1)c1ccccc1Br (stereo not shown) [Example 4], the LogP [1, 2] is reported as 5.05^[a].

With COCCC(=O)C(C#N)=C(NC(C)C1CC1)c1ccccc1Br (stereo not shown) [Example 3] the LogP [1, 2] was 3.20^[a].

In the case of N#CC=C(Cl)c1ccccc1Cl [3-chloro-3-(2-chlorophenyl)acrylonitrile], the chromatographic logP [1, 3] is reported as 3.02 and the LogP ([1]; value in preparation example text, method not given) is reported as 3.23.

In the case of CC(C)C(C)NC(=C(C#N)C(=O)C1CCOC1)c1ccccc1Br (mixture of isomers) [Example 1], the LogP [1, 2] is reported as 3.60^[a].
